In EP2665736B1, “CORONA-LIKE (GUANIDYL)-OLIGOSACCHARIDIC DERIVATIVES AS CELL-P[…] FOR INTRACELLULAR DELIVERY OF COLLOIDAL T[…]” (Universita' Degli Studi Di Padova, priority 2011, dated 2012):

Experiments:
MCF-7 cells = experiment: Cytotoxicity test (MTT cell viability); format: cell-based, human; details: 0 to 100 µM, 24 hours incubation plus 48 hours growth
Method: (§1) The human MCF-7 breast adenocarcinoma and murine MC3T3-E1 embryonic fibroblast cell lines were growth in RPMI 1640 and DMEM medium, respectively, supplemented with 10% heated inactivated foetal bovine serum (FBS), 1% L-glutamine, 1% penicillin-streptomycin-amphotericin B mixture. All cells were maintained at 37 °C in humidified 5% CO2 atmosphere and splitted every 2-3 day.
(§2) MCF-7 and MC3T3-E1 cells were plated in 96-well flat bottomed microassay plates (1 × 10^4 cells/well) and grown for 24 hours. After complete adhesion, (arginyl)7-maltotriosyl-N-acetyl-amino-dodecanoic acid or 2 kDa polyethylenimine (PEI) as control were added to the culture media at increasing concentrations: from 0 to 100 µM. The cells were incubated for 24 hours at 37°C and then the medium was discarded by aspiration and replaced with 200 µl of fresh medium. The cells were grown for further 48 hours. Twenty microliters of 5 mg/mL of 3-(4,5-dimethylthiazol-2-yl)-2,5-diphenyltetrazolium bromide (MTT) in D-PBS were added to each well. […] The plates were gently shaken for 30 min and absorbance was measured at 570 nm with a reference wavelength of 630 nm. The cell viability was expressed as a percent viability of treated cells against untreated cells used as control. […]

MC3T3-E1 cells = experiment: Cytotoxicity test (MTT cell viability); format: cell-based, murine; details: 0 to 100 µM, 24 hours incubation plus 48 hours growth
Method: as §1, §2

(arginyl)7-maltotriosyl-N-acetyl-amino-dodecanoic acid
IC50 (MCF-7 cells): > 100 µM
IC50 (MC3T3-E1 cells): > 100 µM
